Measured values as given in US11040981B2, “Pyrrolotriazine compounds and methods of inhibiting TAM kinases” (Syros Pharmaceuticals, Inc., priority 2017, dated 2021).
Structures can show the parent of a compound that is named as a salt.

Tests used:
AXL = target: T1, AXL (Homo sapiens, UniProt P30530); assay: TR-FRET kinase activity assay, AXL; format: biochemical; settings: ATP at Km, 60 minutes
T1 sequence (P30530 26-894): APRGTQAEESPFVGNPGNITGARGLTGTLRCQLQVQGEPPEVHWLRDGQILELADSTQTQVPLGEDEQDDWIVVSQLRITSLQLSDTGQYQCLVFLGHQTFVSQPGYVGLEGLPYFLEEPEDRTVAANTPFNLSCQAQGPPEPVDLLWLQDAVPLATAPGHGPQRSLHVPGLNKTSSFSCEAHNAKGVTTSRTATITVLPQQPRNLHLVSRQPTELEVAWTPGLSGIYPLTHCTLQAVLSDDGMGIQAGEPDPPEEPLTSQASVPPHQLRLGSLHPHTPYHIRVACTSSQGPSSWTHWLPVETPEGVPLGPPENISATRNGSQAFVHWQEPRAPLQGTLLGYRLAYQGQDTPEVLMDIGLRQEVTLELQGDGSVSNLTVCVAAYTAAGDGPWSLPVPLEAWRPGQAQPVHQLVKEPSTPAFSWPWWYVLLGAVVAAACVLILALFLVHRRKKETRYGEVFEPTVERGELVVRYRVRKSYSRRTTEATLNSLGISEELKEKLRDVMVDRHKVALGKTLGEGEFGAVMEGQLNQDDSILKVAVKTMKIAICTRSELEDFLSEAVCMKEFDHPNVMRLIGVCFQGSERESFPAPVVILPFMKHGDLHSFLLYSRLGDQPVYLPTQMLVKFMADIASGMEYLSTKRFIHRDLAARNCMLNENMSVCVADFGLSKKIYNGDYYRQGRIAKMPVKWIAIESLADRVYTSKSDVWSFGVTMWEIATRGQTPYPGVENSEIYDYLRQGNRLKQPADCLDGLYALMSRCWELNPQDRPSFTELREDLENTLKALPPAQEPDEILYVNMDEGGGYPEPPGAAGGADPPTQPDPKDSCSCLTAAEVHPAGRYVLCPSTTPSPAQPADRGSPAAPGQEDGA
Procedure, shortened: (§1)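 Compounds were tested against each kinase with ATP set at its own Km and a labelled tyrosine peptide substrate. Following one hour at room temperature in buffer containing 10 mM MgCl2 and 1 mM DTT, phosphorylated product was detected by Europium antibody TR-FRET after EDTA quench, and IC50 values were calculated.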

FLT3 = target: T2, FLT3 (Homo sapiens, UniProt P36888); assay: TR-FRET kinase activity assay, FLT3; format: biochemical; settings: ATP at Km, 60 minutes
T2 sequence (P36888 27-993): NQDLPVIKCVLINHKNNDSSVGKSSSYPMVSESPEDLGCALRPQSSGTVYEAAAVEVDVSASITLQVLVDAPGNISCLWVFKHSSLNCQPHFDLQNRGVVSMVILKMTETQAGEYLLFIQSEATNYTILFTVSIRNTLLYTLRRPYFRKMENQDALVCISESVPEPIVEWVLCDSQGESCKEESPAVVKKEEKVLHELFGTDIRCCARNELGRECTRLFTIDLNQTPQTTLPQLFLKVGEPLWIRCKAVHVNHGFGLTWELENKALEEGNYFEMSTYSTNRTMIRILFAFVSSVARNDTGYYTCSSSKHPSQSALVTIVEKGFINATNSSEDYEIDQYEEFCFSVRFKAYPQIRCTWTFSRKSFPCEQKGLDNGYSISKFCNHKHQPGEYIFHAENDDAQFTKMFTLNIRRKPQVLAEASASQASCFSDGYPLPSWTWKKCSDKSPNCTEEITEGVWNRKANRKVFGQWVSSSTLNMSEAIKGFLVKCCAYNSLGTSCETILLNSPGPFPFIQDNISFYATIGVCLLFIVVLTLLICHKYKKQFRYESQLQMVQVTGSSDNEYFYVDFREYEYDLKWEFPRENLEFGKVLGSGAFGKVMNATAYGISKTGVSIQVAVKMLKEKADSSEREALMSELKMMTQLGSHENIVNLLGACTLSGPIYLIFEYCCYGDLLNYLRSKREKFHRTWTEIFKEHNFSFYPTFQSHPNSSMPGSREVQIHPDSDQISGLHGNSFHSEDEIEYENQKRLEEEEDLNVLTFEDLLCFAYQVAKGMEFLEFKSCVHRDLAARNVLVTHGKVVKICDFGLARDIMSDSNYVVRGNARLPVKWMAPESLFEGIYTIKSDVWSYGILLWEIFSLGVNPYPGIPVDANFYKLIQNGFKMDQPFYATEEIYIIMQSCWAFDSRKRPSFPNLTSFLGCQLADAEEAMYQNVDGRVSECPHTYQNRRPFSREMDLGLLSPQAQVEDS
Procedure, shortened: as §1

Compound | IC50 (AXL) [nM] | IC50 (FLT3) [nM]
COC[C@H](C)Nc1ncc2c(-c3cnn(CC4CNC(=O)C4)c3)cc([C@H]3CC[C@H](O)CC3)n2n1 (stereo partly shown) [Compound 303] | ≤ 100 | 100 to 1000
CCCCC[C@H](C)Nc1ncc2c(C3CCNCC3)cc([C@H]3CC[C@H](O)CC3)n2n1 [Compound 116, (1S,4r)-4-(2-((S)-heptan-2-ylamino)-5-(piperidin-4-yl)pyrrolo[2,1-f][1,2,4]triazin-7-yl)cyclohexanol hydrochloride] | ≤ 100 | 100 to 1000
Cc1nnc(Cn2cc(-c3cc([C@H]4CC[C@H](O)CC4)n4nc(N[C@@H](C)CC(F)(F)F)ncc34)cn2)o1 [Compound 296] | ≤ 100 | ≤ 100
COC[C@H](C)Nc1ncc2c(-c3cnn(C(C)(C)C(=O)N4CCC5(COC5)C4)c3)cc([C@H]3CC[C@H](O)CC3)n2n1 [Compound 318] | ≤ 100 | 1000 to 10000
COC[C@H](C)Nc1ncc2c(-c3cnn([C@@H]4CCNC4=O)c3)cc([C@H]3CC[C@H](O)CC3)n2n1 [Compound 315] | ≤ 100 | 100 to 1000
COC[C@H](C)Nc1ncc2c(-c3cnn(C(C)(C)C(=O)N4CCOCC4)c3)cc([C@H]3CC[C@H](O)CC3)n2n1 [Compound 282] | ≤ 100 | 100 to 1000
COC[C@H](C)Nc1ncc2c(-c3cnn(Cc4cncc(C)n4)c3)cc([C@H]3CC[C@H](O)CC3)n2n1 [Compound 329] | ≤ 100 | 100 to 1000
CCCCC[C@H](C)Nc1ncc2c(N3CCNCC3)cc([C@H]3CC[C@H](O)CC3)n2n1 [Compound 114] | ≤ 100 | 100 to 1000
COC[C@H](C)Nc1ncc2c(-c3ccnc(N4CCN(C(C)=O)CC4)c3)cc([C@H]3CC[C@H](O)CC3)n2n1 [Compound 344] | ≤ 100 | 100 to 1000
CNC(=NC#N)N[C@H]1CC[C@H](c2cc(-c3ccc(CN4CCOCC4)cc3)c3cnc(N[C@@H](C)COC)nn32)CC1 [Compound 307] | ≤ 100 | ≤ 100
CNS(=O)(=O)c1cncc(-c2cc([C@H]3CC[C@H](O)CC3)n3nc(N[C@@H](C)CC(F)(F)F)ncc23)c1 [Compound 278] | ≤ 100 | 100 to 1000
C[C@@H](CC(F)(F)F)Nc1ncc2c(-c3cn[nH]c3)cc([C@H]3CC[C@H](O)CC3)n2n1 [Compound 276] | ≤ 100 | 100 to 1000
CNC(=O)c1ccc(-c2cc([C@H]3CC[C@H](O)CC3)n3nc(N[C@@H](C)COC)ncc23)cn1 [Compound 317] | ≤ 100 | ≤ 100
COC[C@H](C)Nc1ncc2c(-c3cc(C)nc(C)c3)cc([C@H]3CC[C@H](O)CC3)n2n1 [Compound 308] | 100 to 1000 | 1000 to 10000
CNS(=O)(=O)c1cncc(-c2cc([C@H]3CC[C@H](O)CC3)n3nc(N[C@@H](C)COC)ncc23)c1 [Compound 272] | 100 to 1000 | 100 to 1000
CNS(=O)(=O)c1cncc(-c2cc([C@H]3CC[C@H](O)CC3)n3nc(N[C@@H](C)COC(F)F)ncc23)c1 [Compound 275] | ≤ 100 | 1000 to 10000
COC[C@H](C)Nc1ncc2c(-c3cnn(C4CC(C(=O)OC)C4)c3)cc([C@H]3CC[C@H](O)CC3)n2n1 (stereo partly shown) [Compound 330] | ≤ 100 | 100 to 1000
COC[C@H](C)Nc1ncc2c(-c3ccc(CN4CCOCC4)cc3)cc([C@H]3CC[C@H](NS(C)(=O)=O)CC3)n2n1 [Compound 301] | ≤ 100 | ≤ 100
COC[C@H](C)Nc1ncc2c(-c3ccnc(N4CCCC4)c3)cc([C@H]3CC[C@H](O)CC3)n2n1 [Compound 339] | ≤ 100 | 100 to 1000

Compound | IC50 (AXL) [nM] | IC50 (FLT3) [nM]
COC[C@H](C)Nc1ncc2c(-c3cnn(C4CN(C(=O)C5(C(F)(F)F)CC5)C4)c3)cc([C@H]3CC[C@H](O)CC3)n2n1 [Compound 294] | ≤ 100 | ≤ 100
COC[C@H](C)Nc1ncc2c(-c3cnn(C(C)(C)C(=O)N4C[C@@H](C)O[C@@H](C)C4)c3)cc([C@H]3CC[C@H](O)CC3)n2n1 [Compound 320] | ≤ 100 | 1000 to 10000
CNS(=O)(=O)c1ccc(-c2cc([C@H]3CC[C@H](O)CC3)n3nc(N[C@@H](C)COC)ncc23)cn1 [Compound 336] | ≤ 100 | 100 to 1000
COC[C@H](C)Nc1ncc2c(-c3ccnc(OC(C)C)c3)cc([C@H]3CC[C@H](O)CC3)n2n1 [Compound 343] | ≤ 100 | 1000 to 10000
C[C@@H](CC(F)(F)F)Nc1ncc2c(-c3cnn([C@@H]4CCOC4)c3)cc([C@H]3CC[C@H](O)CC3)n2n1 [Compound 289] | ≤ 100 | ≤ 100
COCC(C)Nc1ncc2c(-c3cnn(Cc4ccc(=O)n(C)c4)c3)cc(C3CCC(O)CC3)n2n1 (stereo not shown) [Compound 322] | ≤ 100 | 100 to 1000
COC[C@H](C)Nc1ncc2c(-c3cnn(CCS(C)(=O)=O)c3)cc([C@H]3CC[C@H](O)CC3)n2n1 [Compound 280] | ≤ 100 | 100 to 1000
COC[C@H](C)Nc1ncc2c(-c3cnn(C4CCS(=O)(=O)CC4)c3)cc([C@H]3CC[C@H](O)CC3)n2n1 [Compound 323] | ≤ 100 | 100 to 1000
COC[C@H](C)Nc1ncc2c(-c3cnn(C4CN(CC(F)(F)F)C4)c3)cc([C@H]3CC[C@H](O)CC3)n2n1 [Compound 302] | ≤ 100 | 100 to 1000
COCCn1cc(-c2cc([C@H]3CC[C@H](O)CC3)n3nc(N[C@@H](C)COC(F)F)ncc23)cn1 [Compound 274] | ≤ 100 | ≤ 100
COC[C@H](C)Nc1ncc2c(-c3cnn(C4CN(C(=O)C5COC5)C4)c3)cc([C@H]3CC[C@H](O)CC3)n2n1 [Compound 293] | ≤ 100 | 100 to 1000
Cc1nnc(Cn2cc(-c3cc([C@H]4CC[C@H](O)CC4)n4nc(N[C@@H](C)COC(F)F)ncc34)cn2)o1 [Compound 312] | ≤ 100 | ≤ 100
C[C@@H](CC(F)(F)F)Nc1ncc2c(-c3cncc(C(=O)O)c3)cc([C@H]3CC[C@H](O)CC3)n2n1 [Compound 298] | ≤ 100 | 1000 to 10000
CC(CC(F)(F)F)Nc1ncc2c(-c3cnc(C(=O)O)nc3)cc(C3CCC(O)CC3)n2n1 (stereo not shown) [Compound 299] | ≤ 100 | 1000 to 10000
CCCCC[C@H](C)Nc1ncc2c(N3CCC(N(C)C)CC3)cc(C3CCC(O)CC3)n2n1.Cl (stereo partly drawn) [Compound 115, 4-[5-[4-(dimethylamino)-1-piperidyl]-2-[[(1S)-1-methylhexyl]amino]pyrrolo[2,1-f][1,2,4]triazin-7-yl]cyclohexanol hydrochloride] | 100 to 1000 | 1000 to 10000
CC(CC(F)(F)F)Nc1ncc2c(-c3cncc(S(C)(=O)=O)c3)cc(C3CCC(O)CC3)n2n1 (stereo not shown) [Compound 273] | ≤ 100 | 100 to 1000
Cc1ccc(-c2cc([C@H]3CC[C@H](O)CC3)n3nc(N[C@@H](C)COC(F)F)ncc23)cn1 [Compound 321] | ≤ 100 | ≤ 100
CNC(=O)c1cc(-c2cc([C@H]3CC[C@H](O)CC3)n3nc(N[C@@H](C)COC)ncc23)cc(C)n1 [Compound 335] | 100 to 1000 | 1000 to 10000
COC[C@H](C)Nc1ncc2c(-c3cnn(Cc4cnccn4)c3)cc([C@H]3CC[C@H](O)CC3)n2n1 [Compound 305] | ≤ 100 | 100 to 1000
